Reference: patent US20080096967A1, “Formulations for Injection of Catecholic Butanes, Including Ndga Compounds, Into Animals” (priority 2005, published 2008)

Test: Solubility of M4N in formulations containing modified celluloses (visual inspection); on Dissolution After Rotation: key: N represents 'No'; Y represents 'Yes.'
Type: physicochemical
Experimental: A 10 mL solution of 50% HP-β-CD (w/v) and 0.5% hydroxypropyl methylcellulose (“HPMC”) (w/v) for use as a solubilizing agent and/or excipient was made as follows: 5.9 mL of water suitable for injection into animals (“WFI”) were placed in a glass beaker containing a stir bar. The beaker was placed on a magnetic plate, and the stir bar was set to stir at medium speed. Five grams of HP-β-CD were added slowly to the stirring WFI, using a spatula to direct the HP-β-CD to the center of the beaker. The HP-β-CD solution was stirred for about 24 hr or until the HP-β-CD was dissolved completely upon visual inspection. The resulting solution measured about 9.4 mL. About 0.6 mL of WFI was added to this resulting solution to reach 10 mL, to produce a solution of 50% HP-β-CD (w/v). Fifty milligrams of HPMC were added to the 50% HP-β-CD solution and stirred for about 1 hr or until the HPMC was dissolved upon visual inspection. The final solution was stirred for about 1 hr and was then stored at room temperature, protected from light. This method of making modified cyclodextrins with modified celluloses may be scaled up or down to obtain the desired volume or concentration of HP-β-CD/HPMC solution. Other modified cyclodextrin/modified cellulose solutions may be similarly made, for example, by substituting HP-β-CD with other modified cyclodextrins, or HPMC with other modified celluloses, in the process described above.
A 10 mL solution of M4N at a concentration of about 10 mg/mL in 50% HP-β-CD/0.5% HPMC was made as follows. About 10 mL of the 50% HP-β-CD/0.5% HPMC solution were added to a glass beaker containing a stir bar. The beaker was placed on a magnetic plate and the stir bar was set to stir at medium speed. About 100 mg of M4N were slowly added to the 50% HP-β-CD/0.5% HPMC in the center of the beaker with the aid of a spatula. The M4N/50% HP-β-CD/0.5% HPMC mixture was stirred for 24 hr or until all M4N was uniformly suspended without any clumps being present. The M4N/50% HP-β-CD/0.5% HPMC mixture was heated at about 90° C. for about 30 min. (or longer if a larger volume of solution was desired, for example, 1 hr at 90° C. for 500 mL of the M4N/50% HP-β-CD/0.5% HPMC mixture), or longer as needed to ensure complete dissolution of M4N. […] The final M4N/50% HP-β-CD/0.5% HPMC solution was stored at room temperature and was kept protected from light.
A 10 mL solution of 5% ethylcellulose (“EC”) in ethanol (w/v) for use as a solubilizing agent and/or excipient was made as follows: 10 mL of 100% ethyl alcohol (“EtOH”) were placed in a glass beaker containing a stir bar, covered by a round Teflon® cover. The beaker was placed on a magnetic plate, and the stir bar was set to stir at medium speed. Five hundred (500) milligrams of EC was added slowly to the stirring ethanol, using a spatula to direct the EC to the center of the beaker so as to prevent EC powder from sticking to the beaker wall. The EC solution was stirred for about 2 hr or until the EC was dissolved completely upon visual inspection. The final solution was stored at room temperature, and was protected from light.
A 10 mL solution of M4N at a concentration of about 20 mg/mL in 5% EC (w/v) (the “EC formulation”) was made as follows. About 10 mL of 5% EC formulation, made as described above, were added to a glass beaker containing a stir bar. The beaker was placed on a magnetic plate and the stir bar was set to stir at medium speed, and covered with a round Teflon® cover. About 200 mg of M4N were slowly added to the 5% EC formulation in the center of the beaker with the aid of a spatula to prevent M4N from sticking to the beaker wall. The M4N/EC mixture was stirred for 2 hr or until all M4N had dissolved or was uniformly suspended without any clumps being present. The M4N/EC mixture was heated at about 60° C. for about 30 min. […]

[1] = 50% HP-β-CD, 0.5% HPMC, M4N 1 mg/mL
[2] = 50% HP-β-CD, 0.5% HPMC, M4N 10 mg/mL
[3] = EC 5% (w/v) in EtOH, M4N 1 mg/mL
[4] = EC 5% (w/v) in EtOH, M4N 10 mg/mL
[5] = EC 5% (w/v) in EtOH, M4N 20 mg/mL

Structure (SMILES): COc1ccc(C[C@@H](C)[C@@H](C)Cc2ccc(OC)c(OC)c2)cc1OC [Formulation M4N, meso-1,4-bis(3,4-dimethoxyphenyl)-2,3-dimethylbutane]
- Dissolution After Rotation (2.3% HPMC, M4N 1 mg/mL): N
- Dissolution After Heating (2.3% HPMC, M4N 1 mg/mL, 90° C.): N at 90 °C
- Dissolution After Rotation (2.3% HPMC, M4N 10 mg/mL): N
- Dissolution After Heating (2.3% HPMC, M4N 10 mg/mL, 90° C.): N at 90 °C
- Dissolution After Rotation (2.3% HPMC, M4N 50 mg/mL): N
- Dissolution After Heating (2.3% HPMC, M4N 50 mg/mL, 90° C.): N at 90 °C
- Dissolution After Rotation (2.3% HPMC, M4N 100 mg/mL): N
- Dissolution After Heating (2.3% HPMC, M4N 100 mg/mL, 90° C.): N at 90 °C
- Dissolution After Rotation [1]: N
- Stability Time at Room Temperature [1]: >7 days
- Dissolution After Heating (50% HP-β-CD, 0.5% HPMC, M4N 1 mg/mL, 90° C.): Y at 90 °C
- Dissolution After Rotation [2]: N
- Stability Time at Room Temperature [2]: >7 days
- Dissolution After Heating (50% HP-β-CD, 0.5% HPMC, M4N 10 mg/mL, 90° C.): Y at 90 °C
- Dissolution After Rotation (50% HP-β-CD, 0.5% HPMC, M4N 50 mg/mL): N
- Dissolution After Heating (50% HP-β-CD, 0.5% HPMC, M4N 50 mg/mL, 90° C.): N at 90 °C
- Dissolution After Rotation (CMC (High Viscosity) 1% (w/v), M4N 1 mg/mL): N
- Dissolution After Heating (CMC (High Viscosity) 1% (w/v), M4N 1 mg/mL, 90° C.): N at 90 °C
- Dissolution After Rotation (CMC (High Viscosity) 1% (w/v), M4N 10 mg/mL): N
- Dissolution After Heating (CMC (High Viscosity) 1% (w/v), M4N 10 mg/mL, 90° C.): N at 90 °C
- Dissolution After Rotation (CMC (Low Viscosity) 4%, M4N 1 mg/mL): N
- Dissolution After Heating (CMC (Low Viscosity) 4%, M4N 1 mg/mL, 90° C.): N at 90 °C
- Dissolution After Rotation (CMC (Low Viscosity) 4%, M4N 10 mg/mL): N
- Dissolution After Heating (CMC (Low Viscosity) 4%, M4N 10 mg/mL, 90° C.): N at 90 °C
- Dissolution After Rotation [3]: Y
- Stability Time at Room Temperature [3]: >3 days
- Dissolution After Rotation [4]: N
- Stability Time at Room Temperature [4]: >3 days
- Dissolution After Heating (EC 5% (w/v) in EtOH, M4N 10 mg/mL, 40° C.): Y at 40 °C
- Dissolution After Rotation [5]: N
- Stability Time at Room Temperature [5]: >3 days
- Dissolution After Heating (EC 5% (w/v) in EtOH, M4N 20 mg/mL, 60° C.): Y at 60 °C
- Dissolution After Rotation (EC 5% (w/v) in EtOH, M4N 30 mg/mL): N
- Dissolution After Heating (EC 5% (w/v) in EtOH, M4N 30 mg/mL, 60° C.): Y at 60 °C
- Dissolution After Rotation (EC 5% (w/v) in EtOH, M4N 50 mg/mL): N
- Dissolution After Heating (EC 5% (w/v) in EtOH, M4N 50 mg/mL, 90° C.): Y at 90 °C
- Dissolution After Rotation (EC 5% (w/v) in EtOH, M4N 100 mg/mL): N
- Dissolution After Heating (EC 5% (w/v) in EtOH, M4N 100 mg/mL, 90° C.): Y at 90 °C
- Stability at Room Temperature (M4N 1 mg/mL and 10 mg/mL in 50% HP-β-CD/0.5% HPMC, heated at 90° C., after cool down): greater than 7 days
- stable at room temperature (M4N 1 mg/mL in EC formulation (5% EC in EtOH), without heat): greater than 3 days
- stable at room temperature (M4N 10 mg/mL in EC formulation, dissolved at 40° C.): greater than 3 days
- stable at room temperature (M4N 20 mg/mL in EC formulation, dissolved at 60° C.): greater than 3 days
- solution upon cooling (M4N 30 mg/mL in EC formulation, soluble at 60° C.): did not remain in solution upon cooling
- dissolution (M4N 50 mg/mL in 50% HP-β-CD/0.5% HPMC at 90° C.): did not dissolve
- solution upon cooling (M4N 50 mg/mL or 100 mg/mL in EC formulation, soluble at 90° C.): did not remain in solution upon cooling
- Dissolution After Rotation (MC (Low viscosity) 2% (w/v), M4N 1 mg/mL): N
- Dissolution After Heating (MC (Low viscosity) 2% (w/v), M4N 1 mg/mL, 90° C.): N at 90 °C
- Dissolution After Rotation (MC (Low viscosity) 2% (w/v), M4N 10 mg/mL): N
- Dissolution After Heating (MC (Low viscosity) 2% (w/v), M4N 10 mg/mL, 90° C.): N at 90 °C
